Laboratory results as given in PubChem BioAssay (NCI).
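Cells were grown in 96-well plates and exposed to each compound for 48 hours at five concentrations; endpoints were interpolated linearly between bracketing concentrations, or set to the highest concentration if not reached. TGI marks complete inhibition of growth.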

How the values were obtained:
Test in all cases: growth of human tumour cells (NCI), 48 h
MALME-3M melanoma = tested on: MALME-3M melanoma
RPMI-8226 leukemia = tested on: RPMI-8226 leukemia
UACC-62 melanoma = tested on: UACC-62 melanoma
TK-10 renal = tested on: TK-10 renal
MCF7 breast = tested on: MCF7 breast
SNB-75 CNS = tested on: SNB-75 CNS
M14 melanoma = tested on: M14 melanoma
CCRF-CEM leukemia = tested on: CCRF-CEM leukemia
SW-620 colon = tested on: SW-620 colon
NCI-H226 lung = tested on: NCI-H226 lung
NCI/ADR-RES ovarian = tested on: NCI/ADR-RES ovarian
SF-268 CNS = tested on: SF-268 CNS
IGROV1 ovarian = tested on: IGROV1 ovarian
MOLT-4 leukemia = tested on: MOLT-4 leukemia
HL-60(TB) leukemia = tested on: HL-60(TB) leukemia
U251 CNS = tested on: U251 CNS
NCI-H522 lung = tested on: NCI-H522 lung
786-0 renal = tested on: 786-0 renal
SK-MEL-5 melanoma = tested on: SK-MEL-5 melanoma
SK-MEL-2 melanoma = tested on: SK-MEL-2 melanoma
PC-3 prostate = tested on: PC-3 prostate
MDA-N = tested on: MDA-N
SR leukemia = tested on: SR leukemia
OVCAR-3 ovarian = tested on: OVCAR-3 ovarian
OVCAR-4 ovarian = tested on: OVCAR-4 ovarian
OVCAR-8 ovarian = tested on: OVCAR-8 ovarian
NCI-H460 lung = tested on: NCI-H460 lung
K-562 leukemia = tested on: K-562 leukemia
UO-31 renal = tested on: UO-31 renal
SK-OV-3 ovarian = tested on: SK-OV-3 ovarian
DU-145 prostate = tested on: DU-145 prostate
NCI-H23 lung = tested on: NCI-H23 lung
CAKI-1 renal = tested on: CAKI-1 renal
HCC-2998 colon = tested on: HCC-2998 colon
SN12C renal = tested on: SN12C renal
ACHN renal = tested on: ACHN renal
T-47D breast = tested on: T-47D breast
HCT-15 colon = tested on: HCT-15 colon
MDA-MB-231 breast = tested on: MDA-MB-231 breast
LOX IMVI melanoma = tested on: LOX IMVI melanoma
HCT-116 colon = tested on: HCT-116 colon
HT29 colon = tested on: HT29 colon
SF-539 CNS = tested on: SF-539 CNS
KM12 colon = tested on: KM12 colon
SNB-19 CNS = tested on: SNB-19 CNS
OVCAR-5 ovarian = tested on: OVCAR-5 ovarian
MDA-MB-435 = tested on: MDA-MB-435
EKVX NSCLC = tested on: EKVX NSCLC
HOP-62 NSCLC = tested on: HOP-62 NSCLC
SK-MEL-28 melanoma = tested on: SK-MEL-28 melanoma

Measured: TGI

CC(=O)N/N=C1\NN(C(C)=O)C2(S1)C(=O)Nc1ccccc12 (stereo not given)
> 100 µM: MALME-3M melanoma | RPMI-8226 leukemia | UACC-62 melanoma | TK-10 renal | MCF7 breast | SNB-75 CNS | M14 melanoma | CCRF-CEM leukemia | SW-620 colon | NCI-H226 lung | NCI/ADR-RES ovarian | SF-268 CNS | IGROV1 ovarian | MOLT-4 leukemia | HL-60(TB) leukemia | U251 CNS | NCI-H522 lung | 786-0 renal | SK-MEL-5 melanoma | SK-MEL-2 melanoma | PC-3 prostate | MDA-N | SR leukemia | OVCAR-3 ovarian | OVCAR-4 ovarian | OVCAR-8 ovarian | NCI-H460 lung | K-562 leukemia | UO-31 renal | SK-OV-3 ovarian | DU-145 prostate | NCI-H23 lung | CAKI-1 renal | HCC-2998 colon | SN12C renal | ACHN renal | T-47D breast | HCT-15 colon | MDA-MB-231 breast | LOX IMVI melanoma | HCT-116 colon | HT29 colon | SF-539 CNS | KM12 colon | SNB-19 CNS | OVCAR-5 ovarian | MDA-MB-435 | EKVX NSCLC | HOP-62 NSCLC | SK-MEL-28 melanoma
